# Measurements reported in patent US7256199B1, “Pyrimidone derivatives” (Mitsubishi Chemical Corporation, priority 1998, dated 2007).
# Where a name gives a salt, the structure may show the parent alone.
# Molecular target: T1, bovine cerebral TPK1 (Bos taurus, UniProt A0A3Q1MT31)
# T1 construct: Against P-GS1 Phosphorylation by Bovine Cerebral TPK1; from tissue; host or cells: bovine cerebrum (brain)
# Assay: Inhibitory activity against P-GS1 phosphorylation by bovine cerebral TPK1
# Format: biochemical
# Conditions: 41.7 μM [γ-32P] ATP, 25° C., 2 hours, pH 6.5
# Procedure: Test Example: Inhibitory Activity of the Medicament of the Present Invention Against P-GS1 Phosphorylation by Bovine Cerebral TPK1
# A mixture containing 100 mM MES-sodium hydroxide (pH 6.5), 1 mM magnesium acetate, 0.5 mM EGTA, 5 mM β-mercaptoethanol, 0.02% Tween 20, 10% glycerol, 12 μg/ml P-GS1, 41.7 μM [γ-^32P] ATP (68 kBq/ml), bovine cerebral TPK1 and a compound shown in Table (a final mixture contained 1.7% DMSO deriving from a solution of a test compound prepared in the presence of 10% DMSO) was used as a reaction system. The phosphorylation was started by adding ATP, and the reaction was conducted at 25° C. for 2 hours, and then stopped by adding 21% perchloric acid on ice cooling. The reaction mixture was centrifuged at 12,000 rpm for 5 minutes and adsorbed on P81 paper (Whatmann), and then the paper was washed four times with 75 mM phosphoric acid, three times with water and once with acetone. The paper was dried, and the residual radioactivity was measured using a liquid scintillation counter.
# T1 sequence (A0A3Q1MT31 1-419): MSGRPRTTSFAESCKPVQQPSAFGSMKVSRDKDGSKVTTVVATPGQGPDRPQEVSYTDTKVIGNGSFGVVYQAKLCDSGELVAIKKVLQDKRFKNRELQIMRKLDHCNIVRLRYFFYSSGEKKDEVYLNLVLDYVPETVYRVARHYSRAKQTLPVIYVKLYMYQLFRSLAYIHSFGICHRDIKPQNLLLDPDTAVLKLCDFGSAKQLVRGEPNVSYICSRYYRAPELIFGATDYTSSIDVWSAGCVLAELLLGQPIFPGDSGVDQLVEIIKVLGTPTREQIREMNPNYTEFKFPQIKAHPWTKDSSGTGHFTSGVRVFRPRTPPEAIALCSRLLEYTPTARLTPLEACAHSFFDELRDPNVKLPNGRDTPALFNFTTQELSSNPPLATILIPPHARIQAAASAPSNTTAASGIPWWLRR
row,IC50,Compound
1,2.9 µM,"Cc1ccc(Cc2nc(-c3ccncc3)cc(=O)[nH]2)cc1 [Example 31, 2-(4-methylbenzyl)-6-(4-pyridyl)pyrimidin-4-one]"
2,0.96 µM,"CCCN(CCC)c1nc(-c2ccncc2)cc(=O)[nH]1 [Example 85, 2-dipropylamino-6-(4-pyridyl)pyrimidin-4-one]"
3,1.1 µM,"CCN(CC)c1nc(-c2ccncc2)cc(=O)[nH]1 [Example 71, 2-(diethylamino)-6-(4-pyridyl)pyrimidin-4-one]"
4,1.8 µM,"COc1cccc(Nc2nc(-c3ccncc3)cc(=O)[nH]2)c1 [Example 93, 2-(3-methoxyphenylamino)-6-(4-pyridyl)pyrimidin-4-one]"
5,0.77 µM,"O=c1cc(-c2ccncc2)nc(Cc2cccc(-c3ccccc3)c2)[nH]1 [Example 96, 2-(3-phenylbenzyl)-6-(4-pyridyl)pyrimidin-4-one]"
6,10 µM,"O=c1cc(-c2ccncc2)nc(NCCCO)[nH]1 [Example 86, 2-(3-hydroxypropylamino)-6-(4-pyridyl)pyrimidin-4-one]"
7,1.3 µM,"CCCCc1nc(-c2ccncc2)cc(=O)[nH]1 [Example 6, 2-butyl-6-(4-pyridyl)pyrimidin-4-one]"
8,5.3 µM,"O=c1cc(-c2ccncc2)nc(-c2ccc([N+](=O)[O-])cc2)[nH]1 [Example 24, 2-(4-nitrophenyl)-6-(4-pyridyl)pyrimidin-4-one]"
9,7.6 µM,"O=c1cc(-c2ccncc2)nc(Cc2cccs2)[nH]1 [Example 42, 6-(4-pyridyl)-2-(2-thienylmethyl)pyrimidin-4-one]"
10,3 µM,"Cc1nc(-c2ccncc2)cc(=O)[nH]1 [Example 2, 2-methyl-6-(4-pyridyl)pyrimidin-4-one]"
11,3.8 µM,"O=c1cc(-c2ccncc2)nc(-c2ccccn2)[nH]1 [Example 37, 2-(2-pyridyl)-6-(4-pyridyl)pyrimidin-4-one]"
12,4.3 µM,"O=c1cc(-c2ccncc2)nc(N2CCOCC2)[nH]1 [Example 82, 2-(4-morpholinyl)-6-(4-pyridyl)pyrimidin-4-one]"
13,1.3 µM,"O=c1cc(-c2ccncc2)nc(Cc2ccccc2)[nH]1 [Example 28, 2-benzyl-6-(4-pyridyl)pyrimidin-4-one]"
14,1.7 µM,"O=c1cc(-c2ccncc2)nc(-c2ccc(O)cc2)[nH]1 [Example 97, 2-(4-hydroxyphenyl)-6-(4-pyridyl)pyrimidin-4-one]"
15,5.5 µM,"O=c1cc(-c2ccncc2)nc(Cc2ccc(Cl)cc2)[nH]1 [Example 33, 2-(4-chlorobenzyl)-6-(4-pyridyl)pyrimidin-4-one]"
16,2.6 µM,"O=c1cc(-c2ccncc2)nc(N2CCCC2)[nH]1 [Example 87, 2-(1-pyrrolidinyl)-6-(4-pyridyl)pyrimidin-4-one]"
17,2.2 µM,"Cc1cccc(-c2nc(-c3ccncc3)cc(=O)[nH]2)c1 [Example 15, 6-(4-pyridyl)-2-(3-tolyl)pyrimidin-4-one]"
18,1.1 µM,"O=c1cc(-c2ccncc2)nc(NCc2ccccc2)[nH]1 [Example 80, 2-benzylamino-6-(4-pyridyl)pyrimidin-4-one]"
19,1.6 µM,"O=c1cc(-c2ccncc2)nc(Nc2ccccc2)[nH]1 [Example 92, 2-phenylamino-6-(4-pyridyl)pyrimidin-4-one]"
20,2.3 µM,"O=c1cc(-c2ccncc2)nc(-c2cccnc2)[nH]1 [Example 1, 2-(3-pyridyl)-6-(4-pyridyl)pyrimidin-4-one]"
21,1.4 µM,"Cc1ccccc1Cc1nc(-c2ccncc2)cc(=O)[nH]1 [Example 29, 2-(2-methylbenzyl)-6-(4-pyridyl)pyrimidin-4-one]"
22,3.7 µM,"CN(C)c1nc(-c2ccncc2)cc(=O)[nH]1 [Example 44, 2-dimethylamino-6-(4-pyridyl)pyrimidin-4-one]"
23,2.1 µM,"CC(C)c1nc(-c2ccncc2)cc(=O)[nH]1 [Example 5, 2-isopropyl-6-(4-pyridyl)pyrimidin-4-one]"

# More lines, now with the values behind:
row,Compound,IC50
1,"O=c1cc(-c2ccncc2)nc(NCC2CCCCC2)[nH]1 [Example 88, 2-cyclohexylmethylamino-6-(4-pyridyl)pyrimidin-4-one]",1.4 µM
2,"Cc1ccc(-c2nc(-c3ccncc3)cc(=O)[nH]2)cc1 [Example 16, 6-(4-pyridyl)-2-(4-tolyl)pyrimidin-4-one]",4.8 µM
3,"N#Cc1cccc(-c2nc(-c3ccncc3)cc(=O)[nH]2)c1 [Example 22, 2-(3-cyanophenyl)-6-(4-pyridyl)pyrimidin-4-one]",6.2 µM
4,"CN(Cc1ccccc1)c1nc(-c2ccncc2)cc(=O)[nH]1 [Example 79, 2-(N-benzyl-N-methylamino)-6-(4-pyridyl)pyrimidin-4-one]",2.8 µM
5,"Cc1ccccc1-c1nc(-c2ccncc2)cc(=O)[nH]1 [Example 14, 6-(4-pyridyl)-2-(2-tolyl)pyrimidin-4-one]",4 µM
6,"CC(C)CN(C)c1nc(-c2ccncc2)cc(=O)[nH]1 [Example 84, 2-(N-isobutyl-N-methylamino)-6-(4-pyridyl)pyrimidin-4-one]",1.1 µM
7,"CN(C)Cc1cccc(-c2nc(-c3ccncc3)cc(=O)[nH]2)c1 [Example 27, 2-(3-(dimethylaminomethyl)phenyl)-6-(4-pyridyl)pyrimidin-4-one dihydrochloride]",3.3 µM
8,"O=c1cc(-c2ccncc2)nc(-c2cccc(Br)c2)[nH]1 [Example 19, 2-(3-bromophenyl)-6-(4-pyridyl)pyrimidin-4-one]",8.7 µM
9,"Nc1nc(-c2ccncc2)cc(=O)[nH]1 [Example 43, 2-amino-6-(4-pyridyl)pyrimidin-4-one]",5.7 µM
10,"O=c1cc(-c2ccncc2)nc(N2CCCCC2)[nH]1 [Example 69, 2-(1-piperidino)-6-(4-pyridyl)pyrimidin-4-one]",2.5 µM
11,"O=c1cc(-c2ccncc2)nc(-c2ccccc2)[nH]1 [Example 12, 2-phenyl-6-(4-pyridyl)pyrimidin-4-one]",1.8 µM
12,"O=c1cc(-c2ccncc2)nc(CCCc2ccccc2)[nH]1 [Example 36, 2-(3-phenylpropyl)-6-(4-pyridyl)pyrimidin-4-one]",0.5 µM
13,2-(bromophenylamino)-6-(4-pyridyl)pyrimidin-4-one [Example 91],1.6 µM
14,"O=c1cc(-c2ccncc2)nc(CCc2ccccc2)[nH]1 [Example 35, 2-(2-phenylethyl)-6-(4-pyridyl)pyrimidin-4-one]",8.9 µM
15,"O=c1cc(-c2ccncc2)nc(Cc2ccccc2Cl)[nH]1 [Example 68, 2-(2-chlorobenzyl)-6-(4-pyridyl)pyrimidin-4-one]",1.3 µM
16,"O=c1cc(-c2ccncc2)nc(C2CCCCC2)[nH]1 [Example 83, 2-cyclohexyl-6-(4-pyridyl)pyrimidin-4-one]",2.8 µM
17,2-(butoxyphenylamino)-6-(4-pyridyl)pyrimidin-4-one [Example 90],6.3 µM
18,2-(ethylphenylamino)-6-(4-pyridyl)pyrimidin-4-one [Example 89],2.3 µM
19,"CC(C)Cc1nc(-c2ccncc2)cc(=O)[nH]1 [Example 7, 2-isobutyl-6-(4-pyridyl)pyrimidin-4-one]",2.4 µM
20,"O=c1cc(-c2ccncc2)nc(-c2ccncc2)[nH]1 [Example 38, 2,6-di(4-pyridyl)pyrimidin-4-one]",1.8 µM
